Results from patent US20240368406A1, “STABLE LIQUID PHANTOM FOR NEAR-INFRARED FLUORESCENCE VERIFICATION” (SURGVISION GMBH, priority 2021, published 2024).

Legend:
Type in all cases: physicochemical
[1] = Stability of the phantom solutions at +2-8° C. (residual absorbance, UV/VIS)
Procedure: Several stability studies were performed to evaluate the effect of different buffers, additives such as excipients or preservatives, and storage conditions on the dye formulation. In particular the stability of the formulations after storage at +2-8° C. in a refrigerator was firstly investigated.
(§1) Stability was measured as reduction in the absorbance at the maximum wavelength of the dye acquired using a UV/VIS spectrophotometer, denoting reduction of the dye monomer content in solution. All the results were then reported as residual percentage vs the baseline (T=0), wherein at time=0 the percentage is 100%. A decrease in absorbance is associated with the reduction of the concentration of the dye in the formulation buffer, indicating low stability and degradation of the main chromophore species.
In the Tables below the residual absorbance of different dyes, i.e. […] and S0456, in some representative organic buffering solutions is reported after storage of the formulations at +2-8° C.

[2] = Stability of the phantom solutions at +2-8° C. in the presence of additives (residual absorbance); conditions: +2-8° C.
Procedure: as §1
The effect of the presence of an additive on the stability of the formulations of the invention has been also investigated.
The preparation of the above buffers is described below:
50 mM HEPES (pH 7.4)+0.04% Tween 20: to prepare 100 mL of buffering solution, 1.19 g of HEPES were dissolved in 80 mL of water; 40 μL of Tween 20 were added and the pH was adjusted to 7.4 with 0.1 M HCl. The buffering solution was then brought to 100 mL volume with water and filtered on 0.22 μm membrane in sterile conditions.
50 mM HEPES (PH 7.4)+0.02% Sodium Azide: to prepare 100 mL of buffering solution, 1.19 g of HEPES and 20 mg of Sodium Azide were dissolved in 80 mL of water and the pH was adjusted to 7.4 with 0.1 M HCl. The buffering solution was then brought to 100 mL volume with water and filtered on 0.22 μm membrane in sterile conditions.
10 mM HEPES (PH 7.0)+10% EtOH: to prepare 100 mL of buffering solution, 0.24 g of HEPES were dissolved in 80 mL of water and the pH was adjusted to 7.0 with 0.1 M HCl.
Then, 10 mL of 100% Ethanol were added. The buffering solution was then brought to 100 mL volume with water and filtered on 0.22 μm membrane in sterile conditions.
Analogous solutions were prepared with the same procedure for MOPS, BES and TRICINE buffers.

[3] = Stability of the phantom solutions at +2-8° C. during long-term storage (residual absorbance); conditions: 3 μM dye in HEPES 10 mM, pH 7.0, +2-8° C. protected from light
Procedure: Stability was measured as reduction in the absorbance at the maximum wavelength of the dye acquired using a UV/VIS spectrophotometer, denoting reduction of the dye monomer content in solution. […] A decrease in absorbance is associated with the reduction of the concentration of the dye in the formulation buffer, indicating low stability and degradation of the main chromophore species. The stability of the formulations under long-term storage conditions was also investigated. In particular, samples of 3 μM IRDye […] and 3 μM IRDye 800BK dissolved in HEPES buffer were stored refrigerated at +2-8° C. protected from light exposure for at least 6 months. For the long-term stability study at 2-8° C., samples of.

Residual absorbance percentage ([1]; 3 μM dye in BES buffer 10 mM, pH 7.0, +2-8° C., 1 week): 97.6%
Residual absorbance percentage ([1]; 3 μM dye in BES buffer 10 mM, pH 7.0, +2-8° C., 2 weeks): 94.8%
Residual absorbance percentage ([1]; 3 μM dye in BES buffer 10 mM, pH 7.0, +2-8° C., 4 weeks): 92.0%
Residual absorbance percentage ([1]; 3 μM dye in BES buffer 10 mM, pH 7.4, +2-8° C., 1 week): 97.6%
Residual absorbance percentage ([1]; 3 μM dye in BES buffer 10 mM, pH 7.4, +2-8° C., 2 weeks): 94.4%
Residual absorbance percentage ([1]; 3 μM dye in BES buffer 10 mM, pH 7.4, +2-8° C., 4 weeks): 91.5%
Residual absorbance percentage ([1]; 3 μM dye in BES buffer 10 mM, pH 7.8, +2-8° C., 1 week): 96.4%
Residual absorbance percentage ([1]; 3 μM dye in BES buffer 10 mM, pH 7.8, +2-8° C., 2 weeks): 92.4%
Residual absorbance percentage ([1]; 3 μM dye in BES buffer 10 mM, pH 7.8, +2-8° C., 4 weeks): 88.1%
Residual absorbance percentage ([1]; 3 μM dye in BES buffer 50 mM, pH 7.0, +2-8° C., 1 week): 96.8%
Residual absorbance percentage ([1]; 3 μM dye in BES buffer 50 mM, pH 7.0, +2-8° C., 2 weeks): 93.5%
Residual absorbance percentage ([1]; 3 μM dye in BES buffer 50 mM, pH 7.0, +2-8° C., 4 weeks): 90.0%
Residual absorbance percentage ([1]; 3 μM dye in BES buffer 50 mM, pH 7.4, +2-8° C., 1 week): 97.2%
Residual absorbance percentage ([1]; 3 μM dye in BES buffer 50 mM, pH 7.4, +2-8° C., 2 weeks): 94.0%
Residual absorbance percentage ([1]; 3 μM dye in BES buffer 50 mM, pH 7.4, +2-8° C., 4 weeks): 90.5%
Residual absorbance percentage ([1]; 3 μM dye in BES buffer 50 mM, pH 7.8, +2-8° C., 1 week): 95.9%
Residual absorbance percentage ([1]; 3 μM dye in BES buffer 50 mM, pH 7.8, +2-8° C., 2 weeks): 91.7%
Residual absorbance percentage ([1]; 3 μM dye in BES buffer 50 mM, pH 7.8, +2-8° C., 4 weeks): 89.6%
Residual absorbance percentage ([1]; 3 μM dye in MOPS buffer 10 mM, pH 7.0, +2-8° C., 1 week): 97.9%
Residual absorbance percentage ([1]; 3 μM dye in MOPS buffer 10 mM, pH 7.0, +2-8° C., 2 weeks): 95.7%
Residual absorbance percentage ([1]; 3 μM dye in MOPS buffer 10 mM, pH 7.0, +2-8° C., 4 weeks): 93.7%
Residual absorbance percentage ([1]; 3 μM dye in MOPS buffer 10 mM, pH 7.4, +2-8° C., 1 week): 97.9%
Residual absorbance percentage ([1]; 3 μM dye in MOPS buffer 10 mM, pH 7.4, +2-8° C., 2 weeks): 95.3%
Residual absorbance percentage ([1]; 3 μM dye in MOPS buffer 10 mM, pH 7.4, +2-8° C., 4 weeks): 93.6%
Residual absorbance percentage ([1]; 3 μM dye in MOPS buffer 10 mM, pH 7.8, +2-8° C., 1 week): 96.9%
Residual absorbance percentage ([1]; 3 μM dye in MOPS buffer 10 mM, pH 7.8, +2-8° C., 2 weeks): 94.1%
Residual absorbance percentage ([1]; 3 μM dye in MOPS buffer 10 mM, pH 7.8, +2-8° C., 4 weeks): 91.1%
Residual absorbance percentage ([1]; 3 μM dye in MOPS buffer 50 mM, pH 7.0, +2-8° C., 1 week): 97.4%
Residual absorbance percentage ([1]; 3 μM dye in MOPS buffer 50 mM, pH 7.0, +2-8° C., 2 weeks): 94.6%
Residual absorbance percentage ([1]; 3 μM dye in MOPS buffer 50 mM, pH 7.0, +2-8° C., 4 weeks): 92.0%
Residual absorbance percentage ([1]; 3 μM dye in MOPS buffer 50 mM, pH 7.4, +2-8° C., 1 week): 97.5%
Residual absorbance percentage ([1]; 3 μM dye in MOPS buffer 50 mM, pH 7.4, +2-8° C., 2 weeks): 94.9%
Residual absorbance percentage ([1]; 3 μM dye in MOPS buffer 50 mM, pH 7.4, +2-8° C., 4 weeks): 92.6%
Residual absorbance percentage ([1]; 3 μM dye in MOPS buffer 50 mM, pH 7.8, +2-8° C., 1 week): 97.0%
Residual absorbance percentage ([1]; 3 μM dye in MOPS buffer 50 mM, pH 7.8, +2-8° C., 2 weeks): 94.0%
Residual absorbance percentage ([1]; 3 μM dye in MOPS buffer 50 mM, pH 7.8, +2-8° C., 4 weeks): 91.3%
Residual absorbance percentage ([2]; 3 μM dye in BES (10 mM, pH 7.0) +10% EtOH, 1 week): 99.2%
Residual absorbance percentage ([2]; 3 μM dye in BES (10 mM, pH 7.0) +10% EtOH, 2 weeks): 98.2%
Residual absorbance percentage ([2]; 3 μM dye in BES (10 mM, pH 7.0) +10% EtOH, 4 weeks): 97.2%
Residual absorbance percentage ([2]; 3 μM dye in HEPES (10 mM, pH 7.0) +10% EtOH, 1 week): 97.8%
Residual absorbance percentage ([2]; 3 μM dye in HEPES (10 mM, pH 7.0) +10% EtOH, 2 weeks): 97.2%
Residual absorbance percentage ([2]; 3 μM dye in HEPES (10 mM, pH 7.0) +10% EtOH, 4 weeks): 95.1%
Residual absorbance percentage ([2]; 3 μM dye in MOPS (10 mM, pH 7.0) +10% EtOH, 1 week): 97.6%
Residual absorbance percentage ([2]; 3 μM dye in MOPS (10 mM, pH 7.0) +10% EtOH, 2 weeks): 95.8%
Residual absorbance percentage ([2]; 3 μM dye in MOPS (10 mM, pH 7.0) +10% EtOH, 4 weeks): 92.9%
Residual absorbance percentage ([3]; 1 month): 99.1%
Residual absorbance percentage ([3]; 3 months): 94.1%
Residual absorbance percentage ([3]; 6 months): 93.3%
Compound: CC1(C)C(/C=C/C2=C(Oc3ccc(S(=O)(=O)O)cc3)C(=C/C=C3\N(CCCCS(=O)(=O)[O-])c4ccc(S(=O)(=O)O)cc4C3(C)C)/CCC2)=[N+](CCCCS(=O)(=O)O)c2ccc(S(=O)(=O)O)cc21 [IRDye 800BK]
